According to publication PMC7949139, “The molecular basis of OH-PCB estrogen receptor activation” (The Journal of Biological Chemistry, 2021):
Numbering of substitutions follows the chain as printed.

What was measured:
WT SULT1E1 = molecular target: T1, WT SULT1E1 (Homo sapiens, UniProt P49888); assay: Initial-rate studies (1-HP sulfonation; OH-PCB inhibition), WT enzyme; format: biochemical
T1 construct: E. coli codon-optimized SULT1E1 coding region inserted into the PreScission Protease cleavage site; His/GST/MBP triple tag (N, cleaved yes); made in house; host or cells: E. coli BL21(DE3)
T1 sequence (P49888 1-294): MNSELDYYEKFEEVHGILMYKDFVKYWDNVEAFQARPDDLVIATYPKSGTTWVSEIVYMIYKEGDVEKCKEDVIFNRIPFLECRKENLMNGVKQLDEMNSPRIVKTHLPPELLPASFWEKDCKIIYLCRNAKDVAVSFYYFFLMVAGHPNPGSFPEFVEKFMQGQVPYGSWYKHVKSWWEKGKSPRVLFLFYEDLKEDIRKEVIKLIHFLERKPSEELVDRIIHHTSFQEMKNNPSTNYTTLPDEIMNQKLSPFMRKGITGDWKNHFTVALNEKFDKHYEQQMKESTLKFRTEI
Method: (§1) C. Reaction progress was monitored via the fluorescence change associated with 1-HP sulfonation (λex = 325 nm, λem = 370 nm ([51], [52])). Initial rates were measured during conversion to product of ≤5% of the concentration-limiting substrate consumed at the reaction endpoint. Velocities were determined in triplicate. Km and kcat were obtained by (1/v^4)-weighted least-squares fitting of the averaged data in double-reciprocal space (i.e., 1/v versus 1/[S]) ([66], [67]).
(§2) Inhibition studies were performed as described above except: 1-HP was fixed (2.0 μM, 100 × Km), OH-PCBs were added (0.20–20 × Ki), and SULT1E1 was 0.20 nM (active sites). Ki was determined by least-squares fitting to a noncompetitive inhibition model ([66], [67]).

SULT1E1 F80A/F75A = molecular target: T2, SULT1E1 F80A/F75A (Homo sapiens, UniProt P49888, F75A/F80A); assay: Initial-rate studies (1-HP sulfonation; OH-PCB1 inhibition), double mutant; format: biochemical
T2 construct: E. coli codon-optimized SULT1E1 coding region inserted into the PreScission Protease cleavage site; His/GST/MBP triple tag (N, cleaved yes); made in house; host or cells: E. coli BL21(DE3)
T2 sequence (P49888 1-294 F75A/F80A): T1 sequence (P49888 1-294) with F75A, F80A
Method: as §1, §2

[1] = system: estrogen receptor (ER) activation in (-) SULT1E1 control Ishikawa cells; assay: Estrogen receptor activation (alkaline phosphatase activity), control strain; format: cell-based; conditions: Homo sapiens, Control cell line, OH-PCB titration at 10 nM E2 (footnote a), NE = No Effect, read-out: Ligand EC50, ER activation
Method: (§3) pcDNA 3.1 constructs harboring either the SULT1E1 WT or double mutant (F75A/F80A) coding regions were generated using Gibson Assembly ([74]). The vectors were linearized using BGIII. Ishikawa cells were grown at 37 °C ± 2 deg. C in growth medium (MEM media containing 10% v/v FBS). At confluence, the cells were washed (3×) with PBS media before coating with an Opti-MEM solution containing a linearized construct (50 ng μg^−1) and lipofectamine (2.5 units ml^−1). After 24 h at 37 °C ± 2 deg. C, cells were washed (3×) with PBS before adding growth medium containing neomycin (400 μg ml^−1) to select transfectants. Selective growth medium was replenished every 48 h until single colonies could be isolated (∼3–6 weeks). Single colonies were transferred using trypsin digest (0.05%) to 12-well plates and grown at 37 °C ± 2 deg. C to confluence for further experimentation and storage.
(§4) Transfected Ishikawa cells were grown at 37 °C ± 2 deg. C to 60 to 70% confluency in MEM containing 10% v/v FBS. Cells were then transferred to 96-well tissue culture plates and grown at 37 °C ± 2 deg. C to 80% confluency in MEM containing 10% v/v charcoal filtered FBS. The plate was then washed with PBS and grown at 37 °C ± 2 deg. C for 24 h in MEM without FBS. Estradiol (0–3.0 μM) and OH-PCB (0–1.0 μM) solubilized in neat DMSO were added and cells were incubated at 37 °C ± 2 deg. C for 5 days. The final concentrations of DMSO were ≤0.10%. Cells were then washed twice with PBS before adding pNpp (5.0 mM) in PBS ([75]). Following incubation with pNpp for 3 h at 25 °C ± 2 deg. C, wells were read at 405 nm using a Synergy HT BioTek Plate Reader.

[2] = system: estrogen receptor (ER) activation in Ishikawa cells expressing WT SULT1E1; assay: cells; format: cell-based, human; conditions: Homo sapiens, Ishikawa; WT cell line; OH-PCB titration at 10 nM E2 (footnote a); parentheses = one SD; read-out: Ligand EC50, ER activation
Method: as §3, §4

With `Oc1ccc(-c2c(Cl)cccc2Cl)cc1` [OH-PCB1, 4ʹ-OH-2,6-dichlorobiphenol] the “Fold Effect = Ki OH-PCB1/Ki OH-PCB1 WT” value (WT SULT1E1; WT) was 1.0, the Ki (WT SULT1E1; WT SULT1E1, Table 1, parentheses = one SD, read-out: Ki OH-PCB1) was 60 nM and the “Fold Effect = Ki OH-PCB1/Ki OH-PCB1 WT” value (SULT1E1 F80A/F75A) was 113. The Ki (SULT1E1 F80A/F75A; noncompetitive inhibition model, parentheses = one SD) was 6.8 µM, the EC50 [1] was greater than 1000 nM and the EC50 [2] was 38 nM.
